Experimental data reported in ChEMBL document CHEMBL1687797, “A mecA-negative strain of methicillin-resistant Staphylococcus aureus with high-level β-lactam resistance contains mutations in three genes” (2010).
Values after ≈ are worked out from the molar mass of the structure shown.

Experiments:
Type in all cases: functional
Staphylococcus aureus [1] = assay: Antimicrobial activity against beta-lactam-resistant and chromosomal mecA deficient Staphylococcus aureus CRB harboring PBP4 E183A F241R, GdpP N182K and AcrB I960V mutant genes selected after 21 days of serial passage in ceftobiprole; details: 504 h
Staphylococcus aureus [2] = assay: Antimicrobial activity against methicillin-, tetracycline-susceptible and chromosomal mecA deficient Staphylococcus aureus COLnex
Staphylococcus aureus [3] = assay: Antimicrobial activity against methicillin-resistant and tetracycline-sensitive Staphylococcus aureus COLn
Staphylococcus aureus [4] = assay: Antimicrobial activity against methicillin-resistant Staphylococcus aureus COL
Staphylococcus aureus [5] = assay: Antimicrobial activity against beta-lactam-resistant and chromosomal mecA deficient Staphylococcus aureus CRB harboring PBP4 E183A F241R, GdpP N182K and AcrB I960V mutant genes selected after 21 days of serial passage; details: 504 h

Compound	MIC (Staphylococcus aureus [1]) [µg/mL]	MIC (Staphylococcus aureus [2]) [µg/mL]	MIC (Staphylococcus aureus [3]) [µg/mL]	MIC (Staphylococcus aureus [4]) [µg/mL]	MIC (Staphylococcus aureus [5]) [µg/mL]
CC1(C)S[C@@H]2[C@H](NC(=O)[C@H](N)c3ccccc3)C(=O)N2[C@H]1C(=O)O [AMPICILLIN]	256 (≈ 733 µM)	< 0.25	–	–	–
Cc1nnc(SCC2=C(C(=O)O)N3C(=O)[C@@H](NC(=O)Cn4cnnn4)[C@H]3SC2)s1 [CEFAZOLIN]	> 256	0.5 (≈ 1.1 µM)	256 (≈ 563 µM)	–	–
CO[C@@]1(NC(=O)Cc2cccs2)C(=O)N2C(C(=O)O)=C(COC(N)=O)CS[C@@H]21 [CEFOXITIN]	8 (≈ 18.7 µM)	4 (≈ 9.36 µM)	256 (≈ 599 µM)	–	–
Nc1nc(/C(=N/O)C(=O)N[C@@H]2C(=O)N3C(C(=O)O)=C(/C=C4\CCN([C@@H]5CCNC5)C4=O)CS[C@H]23)ns1 [CEFTOBIPROLE]	128 (≈ 239 µM)	< 0.25	1 (≈ 1.87 µM)	1 (≈ 1.87 µM)	128 (≈ 239 µM)
CO/N=C(\C(=O)N[C@@H]1C(=O)N2C(C(=O)O)=C(CSc3nc(=O)c(O)nn3C)CS[C@H]12)c1csc(N)n1 [CEFTRIAXONE]	256 (≈ 462 µM)	4 (≈ 7.21 µM)	> 256	–	–
CCOc1ccc2ccccc2c1C(=O)N[C@@H]1C(=O)N2[C@@H]1SC(C)(C)[C@@H]2C(=O)O [NAFCILLIN]	128 (≈ 309 µM)	0.5 (≈ 1.21 µM)	256 (≈ 618 µM)	–	–
